# Experimental data reported in US11976083B2, “Inhibitors of peptidylarginine deiminases” (Gilead Sciences, Inc., priority 2020, dated 2024).
# pIC50: −log10 of the molar value.
# Molecular target: T1, human PAD4 (Homo sapiens, UniProt Q9UM07)
# T1 construct: human PAD4 (NM_012387), A2-P663, was PCR amplified; His-SUMO (N, cleaved yes); made in house; host or cells: E. coli BL21(DE3)
# Assay: In vitro PAD4 BAEE biochemical assay
# Conditions: BAEE substrate 3 mM, 5 nM PAD4, 2 mM calcium chloride; geometric mean of multiple experiments
# In short: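 Recombinant human PAD4 (5 nM final) with 2 mM CaCl2 was preincubated with compound 30 min at 25 °C in MOPS buffer pH 7.6, then reacted with 3 mM BAEE for 2 h at 25 °C. After EDTA stop, released ammonia was detected by o-phthalaldehyde/DTT fluorescence (ex 405/em 535 nm); IC50 from four-parameter fit, geometric mean.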
# T1 sequence (Q9UM07 2-663): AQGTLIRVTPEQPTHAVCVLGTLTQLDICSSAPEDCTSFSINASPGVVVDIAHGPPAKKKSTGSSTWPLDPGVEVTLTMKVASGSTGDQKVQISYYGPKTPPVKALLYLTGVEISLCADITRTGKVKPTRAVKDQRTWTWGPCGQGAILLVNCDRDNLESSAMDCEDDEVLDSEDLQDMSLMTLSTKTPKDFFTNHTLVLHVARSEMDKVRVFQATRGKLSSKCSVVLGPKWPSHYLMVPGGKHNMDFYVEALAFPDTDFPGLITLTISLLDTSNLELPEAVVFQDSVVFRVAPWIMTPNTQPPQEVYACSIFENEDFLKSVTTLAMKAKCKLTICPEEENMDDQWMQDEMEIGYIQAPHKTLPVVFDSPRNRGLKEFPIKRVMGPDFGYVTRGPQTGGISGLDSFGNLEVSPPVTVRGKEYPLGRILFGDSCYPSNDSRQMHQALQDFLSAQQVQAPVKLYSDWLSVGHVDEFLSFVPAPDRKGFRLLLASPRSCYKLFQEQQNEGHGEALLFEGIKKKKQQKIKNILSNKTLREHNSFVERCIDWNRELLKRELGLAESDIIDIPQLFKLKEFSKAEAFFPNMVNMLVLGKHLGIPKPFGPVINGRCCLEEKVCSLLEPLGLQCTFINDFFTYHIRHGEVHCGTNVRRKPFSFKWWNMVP
row,Compound,pIC50
1,"COc1cc(C(=O)N2[C@H]3CC[C@@H]2[C@H](N)C3)cc2nc(-c3cc4ccc5nc4n3CCCCCC[C@@H](OC)C(=O)N[C@@H]5C)c(C)n12 (single isomer, unassigned) [Example 334, (8−{R},11−{R})-17-[7-[(1−{R},2˜{R},4˜{S})-2-amino-7-azabicyclo[2.2.1]heptane-7-carbonyl]-5-methoxy-3-methyl-imidazo[1,2-a]pyridin-2-yl]-8-methoxy-11-methyl-1,10,19-triazatricyclo[10.5.2^{15,18}]nonadeca-12(19),13,15(18),16-tetraen-9-one]",7.41
2,"COc1cc(C(=O)N2CCC[C@@H](N)C2)cc2nc(-c3cc4ccc5cc4n3CCCCC[C@H]3C[C@@H]3C(=O)N[C@@H]5C)n(C)c12 [Example 164, (2~{R},5~{S},7~{S})-14-[5-[(3~{R})-3-aminopiperidine-1-carbonyl]-7-methoxy-1-methyl-benzimidazol-2-yl]-2-methyl-3,13-diazatetracyclo[11.5.2.0^{5,7}.0^{16,20}] icosa-1(19),14,16(20),17-tetraen-4-one]",7.48
3,"COc1cc(C(=O)N2CCC[C@@H](N)C2)cc2nc(-c3cc4ccc5nc4n3CCCC#Cc3cnn(C)c3C(=O)N[C@@H]5C)n(C)c12 [Example 171, (2~{R})-16-[5-[(3~{R})-3-aminopiperidine-1-carbonyl]-7-methoxy-1-methyl-benzimidazol-2-yl]-2,6-dimethyl-3,6,7,15,21-pentazatetracyclo[13.5.2.0^{5,9}.0^{18,22}] docosa-1(21),5(9),7,16,18(22),19-hexaen-10-yn-4-one]",6.09
4,"C[C@H]1NC(=O)c2c(ccnc2C(F)(F)F)CCCCCn2c(-c3nc4cc(C(=O)N5C[C@H](N)[C@@H]6CC[C@H]5C6)cc(F)c4n3C3CC3)cc3ccc1nc32 [Example 478, (2~{R})-17-[5-[(1~{S},4~{R},5~{R})-4-amino-2-azabicyclo[3.2.1]octane-2-carbonyl]-1-cyclopropyl-7-fluoro-benzimidazol-2-yl]-2-methyl-6-(trifluoromethyl)-3,7,16,22-tetrazatetracyclo[14.5.2.0^{5,10).0^{19,23}] tricosa-1(22),5(10),6,8,17,19(23),20-heptaen-4-one]",7.30
5,"COc1cc(C(=O)N[C@H]2CNCC[C@@H]2F)cc2nc(-c3cc4ccc5nc4n3CCCCCCC(C)(C)C(=O)N[C@@H]5C)n(C)c12 [Example 178, ~{N}-[(3~{S},4~{S})-4-fluoro-3-piperidyl]-7-methoxy-1-methyl-2-[(11~{R})-8,8,11-trimethyl-9-oxo-1,10-diazatricyclo[10.5.2.0^{15,18}]nonadeca-12(19),13,15(18),16-tetraen-17-yl]benzimidazole-5-carboxamide]",7.30
6,"COc1cc(C(=O)N2[C@H]3CC[C@@H]2[C@H](N)C3)cc2nc(-c3cc4ccc5nc4n3CCCCCCC(C)(C)C(=O)N[C@@H]5C)n(C3CC3)c12 [Example 253, (11~{R})-17-[5-[(1~{R},2~{R},4~{S})-2-amino-7-azabicyclo[2.2.1]heptane-7-carbonyl]-1-cyclopropyl-7-methoxy-benzimidazol-2-yl]-8,8,11-trimethyl-1,10,19-triazatricyclo[10.5.2.0^{15,18}]nonadeca-12(19),13,15(18),16-tetraen-9-one]",6.99
7,"C[C@H]1NC(=O)[C@@H]2C[C@H]2CCCC(F)(F)Cn2c(-c3nc4cc(C(=O)N5C[C@H](N)[C@@H]6CC[C@H]5C6)cc(F)c4n3[C@@H]3C[C@H]3F)cc3ccc1nc32 [Example 477, (2~{R},5~{R},7~{R})-14-[5-[(1~{S},4~{R},5~{R})-4-amino-2-azabicyclo[3.2.1]octane-2-carbonyl]-7-fluoro-1-[(1~{R},2~{R})-2-fluorocyclopropyl]benzimidazol-2-yl]-11,11-difluoro-2-methyl-3,13,19-triazatetracyclo[11.5.2.0^{5,7}.0^{16,20}] icosa-1(19),14,16(20),17-tetraen-4-one]",7.46
8,"C[C@H]1NC(=O)CCCCCCCn2c(-c3nc4cc(C(=O)N5[C@H]6CC[C@@H]5[C@H](N)C6)ccn4c3C3CC3)cc3ccc1nc32 [Example 249, (11~{R})-17-[7-[(1~{R},2~{R},4~{S})-2-amino-7-azabicyclo[2.2.1]heptane-7-carbonyl]-3-cyclopropyl-imidazo[1,2-a]pyridin-2-yl]-11-methyl-1,10,19-triazatricyclo[10.5.2.0^{15,18}]nonadeca-12(19),13,15(18),16-tetraen-9-one]",7.29

# Continued, values first:
row,pIC50,Compound
1,7.04,"COc1cc(C(=O)N2CC[C@@H](OC)[C@@H](N)C2)cc2nc(-c3cc4ccc5nc4n3CCCCCC[C@@](C)(C(F)(F)F)C(=O)N[C@@H]5C)n(C)c12 [Example 719, (8~{R},11~{R})-17-[5-[(3~{S},4~{R})-3-amino-4-methoxy-piperidine-1-carbonyl]-7-methoxy-1-methyl-benzimidazol-2-yl]-8,11-dimethyl-8-(trifluoromethyl)-1,10,19-triazatricyclo[10.5.2.0^ {15,18}]nonadeca-12(19),13,15(18),16-tetraen-9-one]"
2,7.17,"COc1cc(C(=O)N2C[C@H](N)[C@@H]3CC[C@H]2C3)cc2nc(-c3cc4ccc5nc4n3CCCCCc3ccc(F)cc3C(=O)N[C@@H]5C)n(C3CC3)c12 [Example 953, (2~{R})-17-[5-[(1~{S},4~{R}, 5~{R})-4-amino-2-azabicyclo [3.2.1]octane-2-carbonyl]-1-cyclopropyl-7-methoxy-benzimidazol-2-yl]-7-fluoro-2-methyl-3,16,22-triazatetracyclo[14.5.2.0^ {5,10}.0^{19,23}]tricosa-1(22),5(10),6,8,17,19(23), 20-heptaen-4-one]"
3,6.67,"COc1cc(C(=O)N2CCC(OC3CC3)C(N)C2)cc2nc(-c3cc4ccc5nc4n3CCCCCCC(C)(C)C(=O)N[C@@H]5C)n(C)c12 (stereo partly shown) [Example 527, (11~{R})-17-[5-[3-amino-4-(cyclopropoxy)piperidine-1-carbonyl]-7-methoxy-1-methyl-benzimidazol-2-yl]-8,8,11-trimethyl-1,10,19-triazatricyclo[10.5.2.0^ {15,18}]nonadeca-12(19),13,15(18), 16-tetraen-9-one]"
4,6.73,COc1cc(C(=O)N2CCC[C@@H](N)C2)cc2nc(-c3cc4ccc5nc4n3CCCCCCCCS(=O)(=O)N5C)n(C)c12 [Example 937]
5,7.60,"CO[C@@H]1CCN(C(=O)c2cc(F)c3c(c2)nc(-c2cc4ccc5nc4n2CC(F)(F)CCC[C@@H]2C[C@H]2C(=O)N[C@@H]5C)n3[C@@H]2C[C@@H]2F)C[C@@H]1N [Example 746, (2~{R},5~{R},7~{R})-14-[5-[(3~{S),4~{R})-3-amino-4-methoxy-piperidine-1-carbonyl]-7-fluoro-1-[(1~{R},2~{S})-2-fluorocyclopropyl]benzimidazol-2-yl]-11,11-difluoro-2-methyl-3,13,19-triazatetracyclo [11.5.2.0^{5,7}.0^{16,20}] icosa-1(19),14,16(20), 17-tetraen-4-one]"
6,7.59,"C[C@H]1NC(=O)[C@@H]2C[C@H]2CCCCCn2c(-c3nc4cc(C(=O)N5[C@H]6CC[C@@H]5[C@H](N)C6)cnc4n3C)cc3ccc1nc32 [Example 563, (2~{R},5~{R},7~{R})-14-[6-[(1~{R},2~{R},4~ {S})-2-amino-7-azabicyclo [2.2.1]heptane-7-carbonyl]-3-methyl-imidazo[4,5-b]pyridin-2-yl]-2-methyl-3,13,19-triazatetracyclo [11.5.2.0^{5,7}.0^{16,20}] icosa-1(19),14,16(20), 17-tetraen-4-one]"
7,7.12,"COc1cc(C(=O)N2CCC[C@@H](N)[C@H]2C(F)F)cc2nc(-c3cc4ccc5nc4n3CCCCCCC(C)(C)C(=O)N[C@@H]5C)n(C)c12 [Example 644, (11~{R})-17-[5-[(2~{S), 3~{R})-3-amino-2-(difluoromethyl)piperidine-1-carbonyl]-7-methoxy-1-methyl-benzimidazol-2-yl]-8,8,11-trimethyl-1,10,19-triazatricyclo [10.5.2.0^{15,18}]nonadeca-12(19),13,15(18),16-tetraen-9-one]"
8,7.62,"C[C@H]1NC(=O)[C@@H]2C[C@H]2CCCC(F)(F)Cn2c(-c3nc4cc(C(=O)N5C[C@H](N)C[C@@H](F)C5)cc(F)c4n3C3CC3)cc3ccc1nc32 [Example 640, (2~{R},5~{R},7~{R})-14-[5-[(3~{R},5~{R})-3-amino-5-fluoro-piperidine-1-carbonyl]-1-cyclopropyl-7-fluoro-benzimidazol-2-yl]-11,11-difluoro-2-methyl-3,13,19-triazatetracyclo[11.5.2.0^ {5,7}.0^{16,20}]icosa-1(19),14,16(20),17-tetraen-4-one]"
9,7.62,"C[C@H]1NC(=O)[C@@H]2C[C@H]2CCCCCn2c(-c3nc4cc(C(=O)N[C@H]5CNCC[C@@H]5F)c(F)cc4n3C)cc3ccc1cc32 [Example 564, 6-fluoro-~{N}-[(3~{S},4~ {S})-4-fluoro-3-piperidyl]-1-methyl-2-[(2~{R},5~ {R},7~{R})-2-methyl-4-oxo-3,13-diazatetracyclo [11.5.2.0^{5,7}.0^{16,20}]icosa-1(19),14,16(20), 17-tetraen-14-yl] benzimidazole-5-carboxamide]"
10,7.96,"C[C@H]1NC(=O)[C@@H]2C[C@@]2(F)CCCCCn2c(-c3nc4cc(C(=O)N5C[C@H](N)[C@@H]6CC[C@H]5C6)cc(F)c4n3C)cc3ccc1nc32 [Example 717, (2~{R},5~{S},7~{S})-14-[5-[(1~{S},4~{R},5~{R})-4-amino-2-azabicyclo[3.2.1]octane-2-carbonyl]-7-fluoro-1-methyl-benzimidazol-2-yl]-7-fluoro-2-methyl-3,13,19-triazatetracyclo [11.5.2.0^{5,7}.0^{16,20}] icosa-1(19),14,16(20), 17-tetraen-4-one]"
11,7.89,COc1cc(C(=O)N2CC[C@@H](OC)[C@@H](N)C2)cc2nc(-c3cc4ccc5nc4n3CCCC(F)(F)C[C@@H]3C[C@H]3C(=O)N[C@@H]5C)n(C)c12 [Example 857]
